Columns and labels:
[1] = target: T1, Dihydroorotate dehydrogenase (Plasmodium falciparum, UniProt Q54A96)
T1 sequence (Q54A96 whole entry): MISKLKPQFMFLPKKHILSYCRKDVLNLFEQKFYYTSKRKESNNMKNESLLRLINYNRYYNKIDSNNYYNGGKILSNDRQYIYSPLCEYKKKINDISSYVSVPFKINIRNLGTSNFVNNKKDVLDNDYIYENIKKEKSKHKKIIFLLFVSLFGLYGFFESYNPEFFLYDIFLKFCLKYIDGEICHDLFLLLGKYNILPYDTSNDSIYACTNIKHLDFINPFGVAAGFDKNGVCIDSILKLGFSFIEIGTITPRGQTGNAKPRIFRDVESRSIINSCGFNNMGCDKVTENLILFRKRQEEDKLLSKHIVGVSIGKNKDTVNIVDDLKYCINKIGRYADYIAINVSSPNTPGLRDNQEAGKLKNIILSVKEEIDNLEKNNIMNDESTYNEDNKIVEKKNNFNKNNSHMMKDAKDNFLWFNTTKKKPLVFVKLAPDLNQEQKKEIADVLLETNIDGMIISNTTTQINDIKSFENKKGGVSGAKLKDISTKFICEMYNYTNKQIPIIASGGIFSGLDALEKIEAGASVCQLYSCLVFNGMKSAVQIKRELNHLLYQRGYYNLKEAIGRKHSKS
Description: Inhibition of ubiquinone binding site of Plasmodium falciparum dihydroorotate dehydrogenase

[2] = target: Dihydroorotate dehydrogenase (quinone), mitochondrial (Homo sapiens, UniProt Q02127)
Dihydroorotate dehydrogenase (quinone), mitochondrial, sequence (Q02127 whole entry): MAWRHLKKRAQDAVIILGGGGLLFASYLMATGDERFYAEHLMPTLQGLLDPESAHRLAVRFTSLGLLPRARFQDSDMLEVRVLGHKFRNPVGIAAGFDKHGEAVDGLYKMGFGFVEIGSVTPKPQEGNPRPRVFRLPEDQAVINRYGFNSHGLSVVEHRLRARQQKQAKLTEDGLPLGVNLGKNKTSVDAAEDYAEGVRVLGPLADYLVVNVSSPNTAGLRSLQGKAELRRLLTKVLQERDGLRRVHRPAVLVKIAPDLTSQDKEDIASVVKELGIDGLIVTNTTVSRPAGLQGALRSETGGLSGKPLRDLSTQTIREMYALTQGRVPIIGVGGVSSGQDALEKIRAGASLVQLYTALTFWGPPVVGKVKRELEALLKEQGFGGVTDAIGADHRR
Description: Inhibition of ubiquinone binding site of human dihydroorotate dehydrogenase

Compound | IC50 [1] [nM] | Ki [1] [nM] | IC50 [2] [nM] | Ki [2] [nM]
N#C/C(C(=O)Nc1ccc(C(F)(F)F)cc1)=C(/O)C1CC1 | 92500 | 11000 | 117 | 14
N#C/C(C(=O)Nc1ccc(-c2ccccc2)cc1)=C(/O)C1CC1 |  |  | 53 | 7
COc1ccccc1-c1ccc(NC(=O)/C(C#N)=C(/C)O)c(Cl)c1 | 8600 | 1000 | 200 | 25
C/C(O)=C(\C#N)C(=O)Nc1ccc(-c2ccccc2)cc1Cl | 51100 | 6000 | 320 | 39
CCOc1cccc(-c2ccc(NC(=O)/C(C#N)=C(/C)O)cc2)c1 | 182000 | 21500 | 130 | 16
C/C(O)=C(\C#N)C(=O)Nc1ccc(-c2c(Cl)cccc2Cl)cc1Cl | 10200 | 1200 | 16500 | 2000
C/C(O)=C(\C#N)C(=O)Nc1ccc(-c2cccc(Cl)c2)cc1Cl | 49100 | 5800 | 1520 | 190
C/C(O)=C(\C#N)C(=O)Nc1ccc(-c2cccc(Cl)c2)cc1C(F)(F)F | 57200 | 6800 | 86600 | 10700
C/C(O)=C(\C#N)C(=O)Nc1ccc(-c2ccccc2)cc1 | 25700 | 3000 | 90 | 11
C/C(O)=C(\C#N)C(=O)Nc1ccc(-c2cccc(Cl)c2)c(Cl)c1 | 237000 | 28000 | 190 | 23
C/C(O)=C(\C#N)C(=O)Nc1ccc(-c2cccc(Cl)c2Cl)cc1Cl | 9900 | 1200 | 330 | 40

Continued, values first:

IC50 [1] [nM] | Ki [1] [nM] | IC50 [2] [nM] | Ki [2] [nM] | Compound
4000 | 480 | 180 | 22 | C/C(O)=C(\C#N)C(=O)Nc1ccc(-c2ccccc2Cl)cc1Cl
47400 | 5600 | 130 | 16 | C/C(O)=C(\C#N)C(=O)Nc1ccc(-c2ccccc2Cl)cc1
165000 | 20500 | 22 | 2.7 | C/C(O)=C(\C#N)C(=O)Nc1ccc(-c2ccccc2Cl)c(Cl)c1
27200 | 3200 | 200 | 25 | C/C(O)=C(\C#N)C(=O)Nc1ccc(-c2cccc(Cl)c2Cl)cc1
6200 | 730 | 170 | 21 | C/C(O)=C(\C#N)C(=O)Nc1ccc(-c2ccccc2Cl)cc1C(F)(F)F
